Test results as given in patent US9885713B2, “Diagnosis and treatment of mycobacteria infections” (priority 2013, dated 2018).

The compounds below were run against T1, Gp6 (Mycobacterium phage L5, UniProt Q05278, L15P) (assay: Direct ESI-MS assay of carbohydrate binding). Settings: not given.
T1 construct: pET-30a(+) vector-encoded N-terminal leader (additional residues up to the EcoRI site) (N); made in house; host or cells: E. coli BL21(DE3)
Parameters: species or system mycobacteriophage L5
Experimental: Chemically synthesized fragments of mycobacterial arabinans and phenolic glycolypids were used to test the carbohydrate binding ability of recombinant Gp6. Association constants (Ka) for Gp6 binding to carbohydrate ligands were measured using the direct electrospray ionization mass spectrometry (ESI-MS) assay. The assay is based on the direct detection and quantification of the abundance of ligand-bound and unbound protein ions in the gas phase. All binding measurements were carried out at 25° C. and pH 7.2 using a 9.4T ApexQe FTICR mass spectrometer (Bruker, Billerica, Mass.). ESI was performed in aqueous ammonium acetate (100 mM) solutions prepared from stock solutions of protein and oligosaccharide. The single chain variable fragment (scFv) of the monoclonal antibody Se155-4 was used as reference protein to distinguish specific from nonspecific ligand binding with the protein during the ESI-MS measurements.

T1 sequence (Q05278 other isoform, or with tags, fused parts or gaps L15P): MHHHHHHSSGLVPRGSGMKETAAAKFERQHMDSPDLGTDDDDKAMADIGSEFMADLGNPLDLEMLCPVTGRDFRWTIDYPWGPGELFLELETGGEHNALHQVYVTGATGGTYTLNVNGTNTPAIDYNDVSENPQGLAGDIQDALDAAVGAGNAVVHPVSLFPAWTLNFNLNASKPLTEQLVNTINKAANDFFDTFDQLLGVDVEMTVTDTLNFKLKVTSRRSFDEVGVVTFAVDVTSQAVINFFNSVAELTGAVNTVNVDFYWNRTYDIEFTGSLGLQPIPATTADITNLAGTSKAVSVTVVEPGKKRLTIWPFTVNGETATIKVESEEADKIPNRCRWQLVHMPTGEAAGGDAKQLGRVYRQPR

Row | Compound | Kd [µM]
1 | O=C(NCCCCCCCCO[C@H]1O[C@H](CO[C@H]2O[C@H](CO[C@H]3O[C@H](CO)[C@@H](O)[C@@H]3O[C@@H]3O[C@H](CO[C@H]4O[C@H](CO)[C@@H](O)[C@H](O)[C@@H]4O)[C@@H](O)[C@@H]3O)[C@@H](O)[C@@H]2O)[C@@H](O)[C@@H]1O)C(F)(F)F [compound 1, α-Manp-(1→5)-β-Araf-(1→2)-α-Araf-(1→5)-α-Araf-(1→5)-α-Araf-octyl-NHCOCF3] | 256
2 | O=C(NCCCCCCCCO[C@H]1O[C@H](CO[C@H]2O[C@H](CO[C@H]3O[C@H](CO)[C@@H](O)[C@@H]3O[C@@H]3O[C@H](CO[C@H]4O[C@H](CO)[C@@H](O)[C@H](O)[C@@H]4O[C@H]4O[C@H](CO)[C@@H](O)[C@H](O)[C@@H]4O)[C@@H](O)[C@@H]3O)[C@@H](O)[C@@H]2O)[C@@H](O)[C@@H]1O)C(F)(F)F [compound 2, α-Manp-(1→2)-α-Manp-(1→5)-β-Araf-(1→2)-α-Araf-(1→5)-α-Araf-(1→5)-α-Araf-octyl-NHCOCF3] | 227
3 | O=C(NCCCCCCCCO[C@H]1O[C@H](CO[C@H]2O[C@H](CO[C@H]3O[C@H](CO)[C@@H](O)[C@@H]3O[C@@H]3O[C@H](CO)[C@@H](O)[C@@H]3O)[C@@H](O[C@H]3O[C@H](CO)[C@@H](O)[C@@H]3O[C@@H]3O[C@H](CO)[C@@H](O)[C@@H]3O)[C@@H]2O)[C@@H](O)[C@@H]1O)C(F)(F)F [compound 3, β-Araf-(1→2)-α-Araf-(1→5)[β-Araf-(1→2)-α-Araf-(1→3)]-α-Araf-(1→5)-α-Araf-octyl-NHCOCF3] | 278
4 | O=C(NCCCCCCCCO[C@H]1O[C@H](CO[C@H]2O[C@H](CO[C@H]3O[C@H](CO)[C@@H](O)[C@@H]3O)[C@@H](O)[C@@H]2O)[C@@H](O)[C@@H]1O)C(F)(F)F [compound 5, α-Araf-(1→5)-α-Araf-(1→5)-α-Araf-octyl-NHCOCF3] | 132
5 | O=C(NCCCCCCCCO[C@H]1O[C@H](CO[C@H]2O[C@H](CO[C@H]3O[C@H](CO)[C@@H](O)[C@@H]3O)[C@@H](O[C@H]3O[C@H](CO)[C@@H](O)[C@@H]3O)[C@@H]2O)[C@@H](O)[C@@H]1O)C(F)(F)F [compound 6, α-Araf-(1→5)-[α-Araf-(1→3)]-α-Araf-(1→5)-α-Araf-octyl-NHCOCF3] | 417
6 | O=C(NCCCCCCCCO[C@H]1O[C@H](CO[C@H]2O[C@H](CO)[C@@H](O[C@H]3O[C@H](CO)[C@@H](O)[C@@H]3O[C@@H]3O[C@H](CO)[C@@H](O)[C@@H]3O)[C@@H]2O)[C@@H](O)[C@@H]1O)C(F)(F)F [compound 7, β-Araf-(1→2)-α-Araf-(1→3)-α-Araf-(1→5)-α-Araf-octyl-NHCOCF3] | 909
7 | O=C(NCCCCCCCCO[C@H]1O[C@H](CO[C@H]2O[C@H](CO[C@H]3O[C@H](CO[C@H]4O[C@H](CO)[C@@H](O)[C@@H]4O)[C@@H](O)[C@@H]3O)[C@@H](O)[C@@H]2O)[C@@H](O)[C@@H]1O)C(F)(F)F [compound 8, α-Araf-(1→5)-α-Araf-(1→5)-α-Araf-(1→5)-a-Araf-octyl-NHCOCF3] | 145
8 | O=C(NCCCCCCCCO[C@H]1O[C@H](CO[C@H]2O[C@H](CO[C@H]3O[C@H](CO)[C@@H](O)[C@@H]3O[C@@H]3O[C@H](CO[C@H]4O[C@H](CO)[C@@H](O)[C@H](O)[C@@H]4O[C@H]4O[C@H](CO)[C@@H](O)[C@H](O)[C@@H]4O[C@H]4O[C@H](CO)[C@@H](O)[C@H](O)[C@@H]4O)[C@@H](O)[C@@H]3O)[C@@H](O)[C@@H]2O)[C@@H](O)[C@@H]1O)C(F)(F)F [compound 9, α-Manp-(1→2)-α-Manp-(1→2)-α-Manp-(1→5)-β-Araf-(1→2)-α-Araf-(1→5)-α-Araf-(1→5)-α-Araf-octyl-NHCOCF3] | 385
9 | COc1ccc(O[C@@H]2O[C@@H](C)[C@H](O)[C@@H](O[C@@H]3O[C@@H](C)[C@H](O)[C@@H](O[C@@H]4O[C@@H](C)[C@@H](OC)[C@@H](OC)[C@@H]4OC)[C@H]3O)[C@H]2OC)cc1 [compound 10, 2,3,4-tri-O-CH3-α-Fucp-(1→3)-α-Rhap(1→3)-2-O-CH3-α-RhapOPMP] | 1000 ± 500
10 | COc1ccc(O[C@@H]2O[C@@H](C)[C@H](O)[C@@H](O[C@@H]3O[C@@H](C)[C@H](O)[C@@H](O[C@@H]4O[C@@H](C)[C@@H](OC)[C@@H](O)[C@@H]4OC)[C@H]3O)[C@H]2O)cc1 [compound 11, 2,4-di-O-CH3-α-Fucp-(1→3)-α-Rhap(1→3)-α-Rhap-OPMP] | 333
11 | COc1ccc(O[C@@H]2O[C@@H](C)[C@H](O)[C@@H](O[C@@H]3O[C@@H](C)[C@H](O)[C@@H](O[C@@H]4O[C@@H](C)[C@@H](OC)[C@@H](OC)[C@@H]4OC)[C@H]3O)[C@H]2O)cc1 [compound 12, 2,3,4-tri-O-CH3-α-Fucp-(1→3)-α-Rhap(1→3)-α-RhapOpPMP] | 286
12 | COC[C@H]1O[C@@H](O[C@@H]2[C@@H](OC)[C@@H](OC)[C@H](O[C@H]3[C@H](Oc4ccc(OC)cc4)O[C@@H](C)[C@H](O)[C@H]3OC)O[C@H]2C)[C@H](O)[C@@H](OC)[C@@H]1O [compound 13, 3,6-di-O-CH3-β-Glcp-(1→4)-2,3-di-O-CH3-α-Rhap-(1→2)-3-O-CH3-α-RhapOPMP] | 417

Same assay, conditions: 25° C., pH 7.2, direct ESI-MS assay

Row | Compound | Association constants (Ka) for Gp6
13 | 6-O-CH3-β-Glcp-(1→4)-2,3-di-O-CH3-α-Rhap-(1→2)-3-O-CH3-α-RhapOPMP [compound 14] | NB^3
14 | O=C(NCCCCCCCCO[C@H]1O[C@H](CO[C@H]2O[C@H](CO[C@H]3O[C@H](CO)[C@@H](O)[C@@H]3O[C@@H]3O[C@H](CO)[C@@H](O)[C@@H]3O)[C@@H](O)[C@@H]2O)[C@@H](O)[C@@H]1O)C(F)(F)F [compound 4, β-Araf-(1→2)-α-Araf-(1→5)-α-Araf-(1→5)-α-Araf-octyl-NHCOCF3] | NB^3
15 | COc1ccc(OC2OC(C)C(O)C(OC3OC(C)C(O)C(O)C3O)C2OC)cc1 (stereo not drawn) [compound 15, α-Rhap-(1→3)-2-O-CH3-α-RhapOPMP] | NB^3
